Molecular target: T1, TLR8 (Homo sapiens, UniProt Q9NR97)
T1 sequence (Q9NR97 27-1041): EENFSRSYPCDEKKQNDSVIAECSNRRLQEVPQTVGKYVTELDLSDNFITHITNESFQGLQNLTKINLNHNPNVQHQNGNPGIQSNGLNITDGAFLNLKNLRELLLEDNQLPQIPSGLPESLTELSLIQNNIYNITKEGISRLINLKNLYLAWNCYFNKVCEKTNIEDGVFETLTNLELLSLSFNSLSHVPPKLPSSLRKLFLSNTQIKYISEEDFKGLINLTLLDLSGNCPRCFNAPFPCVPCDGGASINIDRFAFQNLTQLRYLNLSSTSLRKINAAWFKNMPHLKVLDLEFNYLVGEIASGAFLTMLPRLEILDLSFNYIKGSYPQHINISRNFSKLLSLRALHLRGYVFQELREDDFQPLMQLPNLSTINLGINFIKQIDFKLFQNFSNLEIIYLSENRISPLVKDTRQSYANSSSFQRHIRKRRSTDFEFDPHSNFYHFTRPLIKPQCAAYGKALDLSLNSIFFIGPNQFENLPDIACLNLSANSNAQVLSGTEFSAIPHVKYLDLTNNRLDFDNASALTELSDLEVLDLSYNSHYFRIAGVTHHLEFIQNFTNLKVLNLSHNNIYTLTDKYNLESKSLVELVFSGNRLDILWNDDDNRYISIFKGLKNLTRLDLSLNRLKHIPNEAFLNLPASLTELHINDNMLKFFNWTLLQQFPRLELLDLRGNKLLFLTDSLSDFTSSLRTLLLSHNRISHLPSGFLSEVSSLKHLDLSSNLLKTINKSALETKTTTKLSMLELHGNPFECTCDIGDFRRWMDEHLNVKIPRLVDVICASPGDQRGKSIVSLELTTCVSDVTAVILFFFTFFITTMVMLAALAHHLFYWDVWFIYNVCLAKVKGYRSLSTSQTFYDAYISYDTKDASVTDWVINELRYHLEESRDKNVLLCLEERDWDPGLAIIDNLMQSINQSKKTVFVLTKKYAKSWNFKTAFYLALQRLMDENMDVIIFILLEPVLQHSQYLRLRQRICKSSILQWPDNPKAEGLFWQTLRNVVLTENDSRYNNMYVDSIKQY
Test: PBMC assay for TLR8 (TNFα in supernatants by ELISA)
Assay type: cell-based
Parameters: Peripheral blood mononuclear cells (PBMCs) from human blood were isolated; endogenous in cells; host or cells: human PBMCs
Details: human PBMCs incubated with compound overnight, MC50 = concentration at which 50% of the maximum induction is seen
Method: Peripheral blood mononuclear cells (PBMCs) from human blood were isolated using BD Vacutainer Cell Preparation Tubes with sodium citrate. Cells were incubated with compound overnight. TLR8 activity was assayed by measuring the amount of TNFα in supernatants by ELISA. TLR7 activity was assayed by measuring the amount of IFNα in supernatants by ELISA (R&D Systems). […] The results of this assay are shown below in Tables 2 and 3.
MC50 numbers are represented as factors of ten, for example, + indicates an MC50 value of ×10^4, or a value in the tens of thousands of nanomolar (nM range); ++ indicates an MC50 value of ×10^3, or a value in the thousands; +++ indicates an MC50 value of ×10^2, or a value in the hundreds; and ++++ indicates an MC50 value of ×10^1 or 10°, or a value in the tens or ones.

EC50 [µM] | Compound
1 to 10 | CCCN(CCC)C(=O)C1=Cc2ccc(-c3ccc(C(=O)O)cc3)cc2N=C(N)C1 [Compound 188, 4-((1E,4E)-2-amino-4-(dipropylcarbamoyl)-3H-benzo[b]azepin-8-yl)benzoic acid]
10 to 100 | NC1=Nc2cc(-c3ccc(C(=O)N4CCCC4)cc3)ccc2C=C(C(=O)N2CCCC2)C1 [Compound 121, (4-((1E,4E)-2-amino-4-(pyrrolidine-1-carbonyl)-3H-benzo[b]azepin-8-yl)phenyl)(pyrrolidin-1-yl)methanone]
1 to 10 | NC1=Nc2cc(-c3ccc(C(=O)N4CCCC4)cc3)ccc2C=C(C(=O)N(C2CCNCC2)C2CC2)C1 [Compound 115, (1E,4E)-2-amino-N-cyclopropyl-N-(piperidin-4-yl)-8-(4-(pyrrolidine-1-carbonyl)phenyl)-3H-benzo[b]azepine-4-carboxamide]
0.1 to 1 | CCCNC(=O)C1=Cc2ccc(-c3ccc(C(=O)N4CCCC4)cc3)cc2N=C(N)C1 [Compound 101, (1E,4E)-2-amino-N-propyl-8-(4-(pyrrolidine-1-carbonyl)phenyl)-3H-benzo[b]azepine-4-carboxamide]
0.1 to 1 | CCCN(C(=O)C1=Cc2ccc(-c3ccc(C(=O)N4CCCC4)cc3)cc2N=C(N)C1)C(C)CC (stereo not shown) [Compound 102, (1E,4E)-2-amino-N-sec-butyl-N-propyl-8-(4-(pyrrolidine-1-carbonyl)phenyl)-3H-benzo[b]azepine-4-carboxamide]
10 to 100 | CCCN(CCC)C(=O)C1=Cc2ccc(-c3cccc(C(=O)O)c3)cc2N=C(N)C1 [Compound 186, 3-((1E,4E)-2-amino-4-(dipropylcarbamoyl)-3H-benzo[b]azepin-8-yl)benzoic acid]
10 to 100 | CCCN(CCCO)C(=O)C1=Cc2ccc(-c3ccc(C(=O)O)cc3)cc2N=C(N)C1 [Compound 209, 4-((1E,4E)-2-Amino-4-((3-hydroxypropyl)(propyl)carbamoyl)-3H-benzo[b]azepin-8-yl)benzoic acid]
1 to 10 | NC1=Nc2cc(-c3ccc(C(=O)N4CCCC4)cc3)ccc2C=C(C(=O)N2CCCCC2)C1 [Compound 122, (4-((1E,4E)-2-amino-4-(piperidine-1-carbonyl)-3H-benzo[b]azepin-8-yl)phenyl)(pyrrolidin-1-yl)methanone]
0.1 to 1 | CCOC(=O)C1=Cc2ccc(-c3ccc(C#N)cc3)cc2N=C(N)C1 [Compound 146, (1E,4E)-ethyl 2-amino-8-(4-cyanophenyl)-3H-benzo[b]azepine-4-carboxylate]
0.1 to 1 | CCOC(=O)C1=Cc2ccc(-c3ccc(C(=O)N4CCCCC4)cc3)cc2N=C(N)C1 [Compound 156, (1E,4E)-ethyl 2-amino-8-(4-(piperidine-1-carbonyl)phenyl)-3H-benzo[b]azepine-4-carboxylate]
0.1 to 1 | CCCN(CCC)C(=O)C1=Cc2ccc(-c3cccc(C(=O)OCC)c3)cc2N=C(N)C1 [Compound 187, Ethyl 3-((1E,4E)-2-amino-4-(dipropylcarbamoyl)-3H-benzo[b]azepin-8-yl)benzoate]
0.1 to 1 | CCCN(CCCF)C(=O)C1=Cc2ccc(-c3ccc(C(=O)N4CCCC4)cc3)cc2N=C(N)C1 [Compound 202, (1E,4E)-2-Amino-N-(3-fluoropropyl)-N-propyl-8-(4-(pyrrolidine-1-carbonyl)phenyl)-3H-benzo[b]azepine-4-carboxamide]
1 to 10 | CCCN(CC(O)CO)C(=O)C1=Cc2ccc(-c3ccc(C(=O)N4CCCC4)cc3)cc2N=C(N)C1 (stereo not shown) [Compound 110, (1E,4E)-2-amino-N-(2,3-dihydroxypropyl)-N-propyl-8-(4-(pyrrolidine-1-carbonyl)phenyl)-3H-benzo[b]azepine-4-carboxamide]
0.1 to 1 | CCCN(CCC)C(=O)C1=Cc2ccc(-c3ccc(C(=O)N4C[C@H](O)[C@@H](O)C4)cc3)cc2N=C(N)C1 [Compound 129, (1E,4E)-2-amino-8-(4-((3S,4S)-3,4-dihydroxypyrrolidine-1-carbonyl)phenyl)-N,N-dipropyl-3H-benzo[b]azepine-4-carboxamide]
1 to 10 | CCCN(CCCF)C(=O)C1=Cc2ccc(-c3ccc(C(=O)OCC)cc3)cc2N=C(N)C1 [Compound 208, Ethyl 4-((1E,4E)-2-amino-4-((3-fluoropropyl)(propyl)carbamoyl)-3H-benzo[b]azepin-8-yl)benzoate]
0.1 to 1 | CCOC(=O)C1=Cc2ccc(-c3ccccn3)cc2N=C(N)C1 [Compound 141, (1E,4E)-ethyl 2-amino-8-(pyridin-2-yl)-3H-benzo[b]azepine-4-carboxylate]
0.001 to 0.1 | CCCN(CCO)C(=O)C1=Cc2ccc(-c3ccc(C(=O)N4CCCC4)cc3)cc2N=C(N)C1 [Compound 107, (1E,4E)-2-amino-N-(2-hydroxyethyl)-N-propyl-8-(4-(pyrrolidine-1-carbonyl)phenyl)-3H-benzo[b]azepine-4-carboxamide]
0.001 to 0.1 | CCOC(=O)C1=Cc2ccc(-c3cccc(C#N)c3)cc2N=C(N)C1 [Compound 145, (1E,4E)-ethyl 2-amino-8-(3-cyanophenyl)-3H-benzo[b]azepine-4-carboxylate]
0.1 to 1 | CCCN(CCC)C(=O)C1=Cc2ccc(-c3ccc(C(=O)N4C[C@@H](O)[C@H](O)C4)cc3)cc2N=C(N)C1 [Compound 130, (1E,4E)-2-amino-8-(4-((3R,4R)-3,4-dihydroxypyrrolidine-1-carbonyl)phenyl)-N,N-dipropyl-3H-benzo[b]azepine-4-carboxamide]
1 to 10 | COCCN(CCOC)C(=O)C1=Cc2ccc(-c3ccc(C(=O)N4CCCC4)cc3)cc2N=C(N)C1 [Compound 120, (1E,4E)-2-amino-N,N-bis(2-methoxyethyl)-8-(4-(pyrrolidine-1-carbonyl)phenyl)-3H-benzo[b]azepine-4-carboxamide]
1 to 10 | CCCN(CCNS(C)(=O)=O)C(=O)C1=Cc2ccc(-c3ccc(C(=O)N4CCCC4)cc3)cc2N=C(N)C1 [Compound 176, (1E,4E)-2-amino-N-(2-(methylsulfonamido)ethyl)-N-propyl-8-(4-(pyrrolidine-1-carbonyl)phenyl)-3H-benzo[b]azepine-4-carboxamide]
0.1 to 1 | CCOC(=O)C1=Cc2ccc(-c3ccc(C(=O)N(CC)CC)cc3)cc2N=C(N)C1 [Compound 155, (1E,4E)-ethyl 2-amino-8-(4-(diethylcarbamoyl)phenyl)-3H-benzo[b]azepine-4-carboxylate]
